The source of these data is US20210024482A1, “Novel Group of STAT3 Pathway Inhibitors and Cancer Stem Cell Pathway Inhibitors” (Sumitomo Dainippon Pharma Oncology, Inc., priority 2007, published 2021).

Entries after “also recorded” stand apart in the source; their conditions may differ. Some results are limits rather than exact numbers.

In experiment [1] the test system is HT29 colon cancer cells. Description: Colony formation assay, HT29. Format: cell-based. The conditions noted are these: Homo sapiens, HT-29, similar conditions.
Experiment [2] deals with SW480 Hoechst SP cells. The experiment in a line: MTT cell viability, SW480 Hoechst side population CSCs. Format: cell-based. The conditions noted are these: FIG. 8B. Here is the method:
To identify and isolate side population (SP) and non-SP fractions, SW480 cells were removed from the culture dish with trypsin and EDTA, pelleted by centrifugation, washed with phosphate-buffered saline (PBS), and resuspended at 37° C. in Dulbecco's modified Eagle's medium (DMEM) containing 2% FBS and 1 mM HEPES. The cells were then labeled with Hoechst 33342 (Invitrogen) at a concentration of 5 μg/mL. The labeled cells were incubated for 120 minutes at 37° C., either alone or with 50 μM verapamil (Sigma-Aldrich, St. Louis). After staining, the cells were suspended in Hanks' balanced saline solution (HBSS; Invitrogen) containing 2% FBS and 1 mM HEPES, passed a through 40 μm mesh filter, and maintained at 4° C. until flow cytometry analysis. The Hoechst dye was excited at 350 nm, and its fluorescence was measured at two wavelengths using a 450 DF10 (450/20 nm band-pass filter) and a 675LP (675 nm long-pass edge filter) optical filter. The gating on forward and side scatter was not stringent, and only debris was excluded,
For 3-(4,5 dimethylthiazol-2-yl)-2,5-diphenyltetrazolium (MTT) (Sigma-Aldrich, St. Louis, Mo.) analysis, cells were plated in 96 well plates at 10,000 cells per well. 24 hours after plating, compound was added to cells at indicated doses. 22 hours following compound addition, MTT was added to each well (0.5 mg/ml, final concentration) and plates were incubated for an additional 2 hours at 37° C. Medium was then aspirated and the formazan product was solubilized in 100 μl of isopropyl alcohol. The absorbance of each well was measured at 570 nm using a microplate reader.
The IC50 of compound 401 against the Hoechst side population was accessed in MTT assays and was compared to the IC50 against the non-side population.
In addition, we tested the activities of several other compounds against cancer stem cells. Briefly, freshly isolated CSCs (SW480 Hoechst SP cells or CD44^high FaDu cells) were exposed to a dose range (30-0.117 μM) of compound for 48 h before examining cell viability by MTT assay. IC50s were estimated by plotting the percentage of surviving cells. As shown in Table 4 and Table 5, compounds of present invention can target cancer stem cells.

Experiment [3] relates to Stat3. Description: Stat3 DNA binding assay (EMSA) with HeLa nuclear extracts. The experiment is classed as biochemical. The conditions noted are these: HeLa nuclear extract, FIG. 7A/7B. As for the experimental part: Electrophoretic mobility shift assay (EMSA) was performed as described by the manufacturer (Li-Cor Biosciences, Lincoln, Nebr.). Briefly, nuclear extracts were made from HeLa cells using the NucBuster Protein Extraction Kit as described by the manufacturer (EMD Biosciences, San Diego, Calif.). 5 μg of nuclear extract was pre-incubated with the indicated dose of indicated compound for 30 minutes prior to a 15-minute incubation with the IR700-labeled consensus Stat3 oligonucleotide. Samples were then electrophoresed on a polyacrylamide gel and directly scanned using the Odyssey infrared imaging system (Li-Cor Biosciences). For the enzyme-linked immunosorbent assay (ELISA), 5 μg of nuclear extract was preincubated with indicated concentration of indicated compound for 30 minutes prior to the addition of biotinylated oligo (5′-Biotin-[…]-3′, SEQ ID NO. 1). Stat3-DNA complexes were then captured on streptavidin coated 96 well plates (Pierce, Rockford, Ill.). Bound complexes were then incubated with Stat3 polyclonal antibody (Santa Cruz Biotechnology, Santa Cruz, Calif.) followed by anti-rabbit HRP conjugated secondary antibody (GE Healthcare, Pittsburgh, Pa.). Bound antibody was then visualized by addition of TMB substrate (Pierce) and absorbance measured at 450 nm,
Nuclear extracts from HeLa cells, which contain constitutively activated Stat3 as detected by phoshporylation at the tyrosine 705 residue, were used to perform Stat3 EMSAs to monitor Stat3 DNA binding activity. Nuclear extracts were incubated with indicated compound prior to incubation with IR700-labeled Stat3 consensus oligonucleotide. Binding of Stat3 to the oligonucleotide was monitored by gel electrophoresis and detection using a LiCor Odyssey infrared scanner.
For orientation: A gel shift assay detects complexes by their altered migration in electrophoresis.

The test system of experiment [4] is CD34^+ BM Myeloid. The experiment in a line: Colony formation assay, CD34+ bone marrow myeloid lineage. Format: cell-based. The conditions noted are these: normal cells, 6 hours incubation. An excerpt:
In a similar fashion to PMBCs, CD34^+ bone marrow hematopoietic stem cells were spared when treated with compound 401.

Experiment [5] relates to DU145 cells. Description: Annexin V flow cytometry in DU145 cells. Format: cell-based. The conditions noted are these: 5 hours post-treatment, FIG. 11. As for the experimental part:
Cells treated with or without compound were harvested at 5 hours post treatment for Annexin-V staining. Collected cells were washed with PBS and resuspended in Annexin-V-FITC containing buffer and stained according to manufactures directions (Roche). Annexin-V positive cells were determined by Flow cytometry.
Additionally, DU145 cells were first treated with DMSO or the indicated concentrations of compound 401, then stained with Annexin V, and followed by Flow cytometry analysis 5 hours post-treatment.
(In general: In flow cytometry, cells or beads pass a laser one at a time.)

For experiment [6], the system named is CD133^+ cells. The experiment in a line: Cleaved-Caspase 3 staining of CD133+ cells. The experiment is classed as cell-based. The conditions noted are these: FIG. 9B. From the text: Sorting tumor cells based primarily upon the differential expression of the surface marker(s), such as CD44 or CD133, have accounted for the majority of the highly tumorigenic CSCs described to date. CD133 isolation is based upon the method of Ricci-Vitiani et al., with slight modification. CD133^+ cells were isolated by either fluorescence activated cell sorting (FACS) or magnetic nanoparticle-based separation. Briefly, […] were labeled with CD133/1 (AC133)-PE for FACS-based cell sorting; or with CD133/1 (AC133)-biotin (Miltenyi Biotec, Auburn, Calif.) for magnetic field-based separation using the EasySep® biotin selection kit (Miltenyi Biotec) according to the manufacturer's recommendations. Non-specific labeling was blocked with the supplied FcR blocking reagent and antibody incubations (1:11) were carried out on ice for 15 minutes in PBS with 2% FBS and 1 mM EDTA. Five washes were done for EasySep® isolation, whereas cells were pelleted at 400×g for 5 minutes and resuspended at 2×10^7/mL, before sorting by FACS.
Cells treated with indicated compound for an indicated time were either fixed in 4% formaldehyde or cold methanol for the detection of Annexin V, cleaved caspase 3, or stat3, respectively. Coverslips were air dried and rehydrated in PBS at room temperature for 10 min. […]

The term IC50 denotes the midpoint of a concentration-inhibition curve. A high value points to weaker potency. For the compound `CC(=O)c1cc2c(o1)C(=O)c1ccccc1C2=O` [Compound 401, 2-acetylnaphtho[2,3-b]furan-4,9-dione], the concentration for half-maximal inhibition (IC50) was less than 0.5 µM in experiment [1] and more than 30 µM in experiment [4]. The “sensitivity of side population compared to non-side population” value in experiment [2] is recorded as “the side population is as sensitive as the non-side population”. The “inhibition of Stat3 DNA binding activity” value in experiment [3] is listed as “Dose dependent inhibition of Stat3 DNA binding; also recorded: can inhibit Stat3's DNA binding activity”. Besides, the “Annexin V staining” value in experiment [5] is given as “dose-dependent increase in the Annexin V staining”. Further, the “cleaved-Caspase 3 staining” value in experiment [6] is on record as “many of the CD133^+ cells become cleaved-Caspase 3 positive”.
